Test results as given in the NIST ThermoML archive (doi:10.1016/j.jct.2012.06.015).
Numbers after ± are expanded uncertainties.

Test: xn = mol fraction of the nth substance listed
Details: 101 kPa, Liquid, Vibrating tube method

O [water] + Cn1ccnc1
Details | mass density [kg/m3]
318.15 K, x2 = 0 | 990.1 ± 0.2

Cn1ccnc1 [1-methylimidazole] + O
mass density [kg/m3]
Details | 288.15 K | 293.15 K | 298.15 K | 303.15 K | 308.15 K | 313.15 K | 318.15 K | 323.15 K
x1 = 0.0443 | 1010.2 ± 0.2 | 1008.3 ± 0.2 | 1006.2 ± 0.2 | 1003.9 ± 0.2 | 1001.6 ± 0.2 | 999.2 ± 0.2 | 996.6 ± 0.2 | 994.2 ± 0.2
x1 = 0.1036 | 1022.1 ± 0.2 | 1019.3 ± 0.2 | 1016.5 ± 0.2 | 1013.3 ± 0.2 | 1010.2 ± 0.2 | 1007.1 ± 0.2 | 1003.9 ± 0.2 | 1000.9 ± 0.2
x1 = 0.2167 | 1037.4 ± 0.2 | 1033.7 ± 0.2 | 1030.1 ± 0.2 | 1026 ± 0.2 | 1022.1 ± 0.2 | 1018.2 ± 0.2 | 1014.3 ± 0.2 | 1010.6 ± 0.2
x1 = 0.3003 | 1044.4 ± 0.2 | 1040.3 ± 0.2 | 1036.3 ± 0.2 | 1031.9 ± 0.2 | 1027.8 ± 0.2 | 1023.6 ± 0.2 | 1019.3 ± 0.2 | 1015.4 ± 0.2
x1 = 0.4024 | 1048.9 ± 0.2 | 1044.6 ± 0.2 | 1040.5 ± 0.2 | 1035.9 ± 0.2 | 1031.5 ± 0.2 | 1027.2 ± 0.2 | 1022.7 ± 0.2 | 1018.6 ± 0.2
x1 = 0.4982 | 1050.2 ± 0.2 | 1045.8 ± 0.3 | 1041.6 ± 0.3 | 1036.8 ± 0.3 | 1032.4 ± 0.2 | 1028 ± 0.2 | 1023.5 ± 0.2 | 1019.3 ± 0.2
x1 = 0.5902 | 1049.3 ± 0.3 | 1044.7 ± 0.3 | 1040.5 ± 0.3 | 1035.7 ± 0.3 | 1031.3 ± 0.3 | 1026.9 ± 0.3 | 1022.5 ± 0.3 | 1018.4 ± 0.3
x1 = 0.7159 | 1046.7 ± 0.3 | 1042.2 ± 0.3 | 1038 ± 0.3 | 1033.2 ± 0.3 | 1028.8 ± 0.3 | 1024.4 ± 0.3 | 1020 ± 0.3 | 1015.9 ± 0.3
x1 = 0.7795 | 1044.7 ± 0.3 | 1040.2 ± 0.3 | 1036 ± 0.3 | 1031.2 ± 0.3 | 1026.8 ± 0.3 | 1022.4 ± 0.3 | 1018 ± 0.3 | 1013.9 ± 0.3
x1 = 0.8907 | 1041.8 ± 0.3 | 1037.4 ± 0.3 | 1033.3 ± 0.3 | 1028.5 ± 0.3 | 1024.1 ± 0.3 | 1019.7 ± 0.3 | 1015.3 ± 0.3 | 1011.2 ± 0.3
x1 = 1 | 1039.4 ± 0.3 | 1035 ± 0.3 | 1030.9 ± 0.3 | 1026.1 ± 0.3 | 1021.7 ± 0.3 | 1017.3 ± 0.3 | 1012.9 ± 0.3 | 1008.8 ± 0.3
